Results reported in US11667645B2, “Granzyme B directed imaging and therapy” (CytoSite Biopharma Inc., priority 2018, dated 2023).

Target: Granzyme B (human lymphocytes) (Homo sapiens (Human), UniProt P10144)
Assay: human Granzyme B biochemical assay
Conditions: Granzyme B (human lymphocytes) 5 nM, substrate Ac-IETD-AFC 200 μM, Cpd incubation with enzyme 30 mins, 22° C., read time 60 mins; read-out: IC50
Source text: The compounds of Formula I-VIII described above can be tested using the human Granzyme B biochemical assay provided below.
Materials: • 1. Granzyme B (human lymphocytes) Enzyme: Enzo Lifesciences, Cat #ALX-200-602-0010 • 2. Substrate (Ac-IETD-AFC): Enzo Lifesciences, Cat #ALX-260-110-M010 • 3. Standard inhibitor (Compound 20-Isomer3): Synthesized internally in TCG • 4. Dimethyl sulfoxide (DMSO): Sigma-Aldrich, Cat #41639 • 5. HEPES: Gibco, Cat #15630-080 • 6. Calcium chloride: Sigma-Aldrich, Cat #C-5080 • 7. Distilled water: Gibco, Cat #15230-162 • 8. Bovine serum albumin (BSA): Sigma-Aldrich, Cat #A3059 • 9. Black, clear bottom PDL plate (384 wells): Greiner bio-one, Cat #781946 • 10. Polypropylene plate (384 wells): Corning, Cat #3657 Assay Buffer Composition:
Compound Preparation: • 1. DMSO is added to the respective compound vial to make 10 mM Compound stock solution, which is stored at −20° C. • 2. 10 mM Compound stock solution is thawed and 1 mM DMSO stock solution is prepared by adding 45 μl of DMSO to 5 μl of 10 mM compound stock solution. • 3. 1 mM DMSO stock solution is serially diluted (3.16 fold) by adding 10 μl of 1 mM DMSO stock to 21.6 μl of DMSO and mixed well. 10 μl of the resulting solution is then added to 21.6 μl of DMSO and mixed well. This process is continued to create 11 dilution points for the assay standard inhibitor and 8 dilution points for test compounds in 384 well polypropylene plate. • 4. 2 μl of each dilution are dispensed in assay ready plate. • 5. Each well is then diluted 25 fold by adding 48 μl of assay buffer to 2 μl of compound in assay ready plate to make Compound working stock. Enzyme Preparation: • 1. Supplied Granzyme B (human lymphocytes) enzyme is reconstituted to 1 mg/ml (about 31.25 μM) and 1 μl aliquots are kept in −80° C. • 2. 1 μl aliquot is diluted to 625 nM by adding 49 μl of assay buffer containing 0.1% BSA and gently mixed. • 3. 10 nM enzyme working stock is prepared by adding assay buffer containing 0.1% BSA. Substrate Preparation: • 1. Supplied substrate (Ac-IETD-AFC) is reconstituted by adding DMSO to make 10 mM stock, aliquoted and stored in −80° C. • 2. 4 mM substrate mid stock is prepared by adding DMSO. • 3. Substrate working stock i.e. 800 μM is prepared by adding assay buffer. Assay Protocol: • 1. 10 μl of serially diluted Compound working stock (start dose 40 μM) is added from assay ready plate to assay plate according to the plate map. • 2. Positive control (40 μM of standard inhibitor) and negative control (4% DMSO buffer) are added to the respective wells. • 3. 20 μl of Enzyme working stock is added to assay plate and gently mixed. • 4. The plate is incubated at 22° C. for 30 mins and spun at 130 g for 1 minute. • 5. After incubation, 10 μl of Substrate working stock is added to respective wells and mixed (Assay plate is maintained in dark after substrate addition). • 6. The plate is incubated at 22° C. for 60 mins and spun at 130 g for 1 minute. • 7. Fluorescence read (RFU) (Ex: 400 nm/Em: 505 nm) is taken after 60 mins in EnVision Multimode plate reader. Final Assay Concentration:
Data Analysis: • 1. The RFU read is analyzed to calculate percent inhibition by normalizing with positive and negative controls taken as 100% and 0% effect respectively in Microsoft excel. • 2. Graph is generated by putting the analyzed data in GraphPad prism 5.0 software to get IC50 value for each compound.

Granzyme B (human lymphocytes), sequence (P10144 21-247): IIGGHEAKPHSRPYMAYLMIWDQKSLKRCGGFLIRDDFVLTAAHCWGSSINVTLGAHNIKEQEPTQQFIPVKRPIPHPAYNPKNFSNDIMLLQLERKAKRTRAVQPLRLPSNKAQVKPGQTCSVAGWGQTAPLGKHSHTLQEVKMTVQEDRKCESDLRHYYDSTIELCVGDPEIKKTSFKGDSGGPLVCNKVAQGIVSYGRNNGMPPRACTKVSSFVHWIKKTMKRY

IC50 | Structure (SMILES)
> 5 µM | O=C(Cc1csc2ccccc12)N[C@@H](Cc1ccc(F)cc1)C(=O)N[C@H]1CCc2cccc3c2N(C1=O)[C@H](C(=O)NCc1c[nH]nn1)C3 [Compound C011, (2S,5S)-5-[(S)-2-(2-Benzo[b]thiophen-3-yl-acetylamino)-3-(4fluoro-phenyl)-propionylamino]-4-oxo-1,2,4,5,6,7-hexahydro-azepino[,3,2,1-hi]indole-2-carboxylic acid (1H-[1,2,3]triazol-4-ylmethyl)-amide]
> 5 µM | C[C@H](NC(=O)Cc1ccccc1)C(=O)N[C@H]1CCc2cccc3c2N(C1=O)[C@H](C(=O)NCc1c[nH]nn1)C3 [Compound C013, (2S,5S)-4-Oxo-5-((S)-2-phenylacetylamino-propionylamino)-1,2,4,5,6,7-hexahydro-azepino[3,2,1-hi]indole-2-carboxylic acid (1H-[1,2,3]triazol-4-ylmethyl)-amide]
0.001 to 0.3 µM | CC(C)[C@H](NC(=O)Cc1ccccc1)C(=O)N[C@H]1CCc2cccc3c2N(C1=O)[C@H](C(=O)NCc1c[nH]nn1)C3 [Compound C014, (2S,5S)-5-((S)-3-Methyl-2-phenylacetylamino-butyrylamino)-4-oxo-1,2,4,5,6,7-hexahydro-azepino[3,2,1-hi]indole-2-carboxylic acid (1H-[1,2,3]triazol-4-ylmethyl)-amide]
1 to 5 µM | O=C(Cc1ccccc1)N[C@@H](Cc1ccccc1)C(=O)N[C@H]1CCc2cccc3c2N(C1=O)[C@H](C(=O)NCc1c[nH]nn1)C3 [Compound C015, (2S,5S)-4-Oxo-5-((S)-3-phenyl-2-phenylacetylamino-propionylamino)-1,2,4,5,6,7-hexahydro-azepino[3,2,1-hi]indole-2-carboxylic acid (1H-[1,2,3]triazol-4-ylmethyl)-amide]
1 to 5 µM | CC(C)C[C@H](NC(=O)Cc1ccccc1)C(=O)N[C@H]1CCc2cccc3c2N(C1=O)[C@H](C(=O)NCc1c[nH]nn1)C3 [Compound C016, (2S,5S)-5-((S)-4-Methyl-2-phenylacetylamino-pentanoylamino)-4-oxo-1,2,4,5,6,7-hexahydro-azepino[3,2,1-hi]indole-2-carboxylic acid (1H-[1,2,3]triazol-4-ylmethyl)-amide]
0.001 to 0.3 µM | CC[C@H](C)[C@H](NC(=O)Cc1ccccc1)C(=O)N[C@H]1CCc2cccc3c2N(C1=O)[C@H](C(=O)NCc1c[nH]nn1)C3 [Compound C017, (2S,5S)-5-((2S,3S)-3-Methyl-2-phenylacetylamino-pentanoylamino)-4-oxo-1,2,4,5,6,7-hexahydro-azepino[3,2,1-hi]indole-2-carboxylic acid(1H-[1,2,3]triazol-4-ylmethyl)-amide]
> 5 µM | O=C(Cc1ccccc1)N[C@@H](CO)C(=O)N[C@H]1CCc2cccc3c2N(C1=O)[C@H](C(=O)NCc1c[nH]nn1)C3 [Compound C018, (2S,5S)-5-((S)-3-Hydroxy-2-phenylacetylamino-propionylamino)-4-oxo-1,2,4,5,6,7-hexahydro-azepino[3,2,1-hi]indole-2-carboxylic acid (1H-[1,2,3]triazol-4-ylmethyl)-amide]
> 5 µM | O=C(O)CC[C@H](NC(=O)Cc1ccccc1)C(=O)N[C@H]1CCc2cccc3c2N(C1=O)[C@H](C(=O)NCc1c[nH]nn1)C3 [Compound C019, (S)-4-{(2S,5S)-4-Oxo-2-[(1H-[1,2,3]triazol-4-ylmethyl)-carbamoyl]-1,2,4,5,6,7-hexahydro-azepino[3,2,1-hi]indol-5-ylcarbamoyl}-4-phenylacetylamino-butyric acid]
> 5 µM | O=C(Cc1ccccc1)N[C@H](C(=O)N[C@H]1CCc2cccc3c2N(C1=O)[C@H](C(=O)NCc1c[nH]nn1)C3)c1ccccc1 [Compound C020, (2S,5S)-4-Oxo-5-((S)-2-phenyl-2-phenylacetylamino-acetylamino)-1,2,4,5,6,7-hexahydro-azepino[3,2,1-hi]indole-2-carboxylic acid (1H-[1,2,3]triazol-4-ylmethyl)-amide]
1 to 5 µM | O=C(Cc1ccccc1)N[C@@H](Cc1ccc(O)cc1)C(=O)N[C@H]1CCc2cccc3c2N(C1=O)[C@H](C(=O)NCc1c[nH]nn1)C3 [Compound C021, (2S,5S)-5-[(S)-3-(4-Hydroxy-phenyl)-2-phenylacetylamino-propionylamino]-4-oxo-1,2,4,5,6,7-hexahydro-azepino[3,2,1-hi]indole-2-carboxylic acid (1H-[1,2,3]triazol-4-ylmethyl)-amide]
> 5 µM | O=C(Cc1ccccc1)N[C@@H](Cc1ccc(F)cc1)C(=O)N[C@H]1CCc2cccc3c2N(C1=O)[C@H](C(=O)NCc1c[nH]nn1)C3 [Compound C022, (2S,5S)-5-[(S)-3-(4-Fluoro-phenyl)-2-phenylacetylamino-propionylamino]-4-oxo-1,2,4,5,6,7-hexahydro-azepino[3,2,1-hi]indole-2-carboxylic acid (1H-[1,2,3]triazol-4-ylmethyl)-amide]
> 5 µM | CC(=O)NCC(=O)N[C@H]1CCc2cccc3c2N(C1=O)[C@H](C(=O)NCc1c[nH]nn1)C3 [Compound C023, (2S,5S)-5-(2-Acetylamino-acetylamino)-4-oxo-1,2,4,5,6,7-hexahydro-azepino[3,2,1-hi]indole-2-carboxylic acid (1H-[1,2,3]triazol-4-ylmethyl)-amide]
> 5 µM | CC(=O)N[C@@H](C)C(=O)N[C@H]1CCc2cccc3c2N(C1=O)[C@H](C(=O)NCc1c[nH]nn1)C3 [Compound C024, (2S,5S)-5-((S)-2-Acetylamino-propionylamino)-4-oxo-1,2,4,5,6,7-hexahydro-azepino[3,2,1-hi]indole-2-carboxylic acid (1H-[1,2,3]triazol-4-ylmethyl)-amide]
1 to 5 µM | CC(=O)N[C@@H](Cc1ccccc1)C(=O)N[C@H]1CCc2cccc3c2N(C1=O)[C@H](C(=O)NCc1c[nH]nn1)C3 [Compound C026, (2S,5S)-5-((S)-2-Acetylamino-3-phenyl-propionylamino)-4-oxo-1,2,4,5,6,7-hexahydro-azepino[3,2,1-hi]indole-2-carboxylic acid (1H-[1,2,3]triazol-4-ylmethyl)-amide]
1 to 5 µM | CC(=O)N[C@@H](CC(C)C)C(=O)N[C@H]1CCc2cccc3c2N(C1=O)[C@H](C(=O)NCc1c[nH]nn1)C3 [Compound C027, (2S,5S)-5-((S)-2-Acetylamino-4-methyl-pentanoylamino)-4-oxo-1,2,4,5,6,7-hexahydro-azepino[3,2,1-hi]indole-2-carboxylic acid (1H-[1,2,3]triazol-4-ylmethyl)-amide]
> 5 µM | CC(=O)N[C@@H](CO)C(=O)N[C@H]1CCc2cccc3c2N(C1=O)[C@H](C(=O)NCc1c[nH]nn1)C3 [Compound C029, (2S,5S)-5-((S)-2-Acetylamino-3-hydroxy-propionylamino)-4-oxo-1,2,4,5,6,7-hexahydro-azepino[3,2,1-hi]indole-2-carboxylic acid (1H-[1,2,3]triazol-4-ylmethyl)-amide]
> 5 µM | CC(=O)N[C@@H](CCC(=O)O)C(=O)N[C@H]1CCc2cccc3c2N(C1=O)[C@H](C(=O)NCc1c[nH]nn1)C3 [Compound C030, (S)-4-Acetylamino-4-{(2S,5S)-4-oxo-2-[(1H-[1,2,3]triazol-4-ylmethyl)-carbamoyl]-1,2,4,5,6,7-hexahydro-azepino[3,2,1-hi]indol-5-ylcarbamoyl}-butyric acid]
1 to 5 µM | CC(=O)N[C@H](C(=O)N[C@H]1CCc2cccc3c2N(C1=O)[C@H](C(=O)NCc1c[nH]nn1)C3)c1ccccc1 [Compound C031, (2S,5S)-5-((S)-2-Acetylamino-2-phenyl-acetylamino)-4-oxo-1,2,4,5,6,7-hexahydro-azepino[3,2,1-hi]indole-2-carboxylic acid (1H-[1,2,3]triazol-4-ylmethyl)-amide]
